According to ChEMBL document CHEMBL3046308, “Synthesis of phenoxyphenyl pyridine and pyrazine carboxamides. Activity against Cydia pomonella (L.) eggs” (2000):

Experiments:
Format in all cases: functional
[1] = tested on: Cydia pomonella; assay: Ovicidal activity against 24 hr old Cydia pomonella (codling moth) eggs assessed as development period at 5 mg/ml sprayed at 19 +/- 1 degC
[2] = tested on: Cydia pomonella; assay: Ovicidal activity against 24 hr old Cydia pomonella (codling moth) eggs assessed as mortality at 5 mg/ml sprayed at 19 +/- 1 degC
[3] = tested on: Cydia pomonella; assay: Ovicidal activity against 24 hr old Cydia pomonella (codling moth) eggs assessed as efficacy at 5 mg/ml sprayed at 19 +/- 1 degC

Row | Structure (SMILES) | Time [1] [days] | mortality at 5000 µg/mL [2] [%] | Efficacy [3] [%]
1 | CC(=O)Nc1ccc(Oc2ccc(NC(=O)c3ccncc3)cc2)cc1 | 10.1 | 52.7 | 
2 | O=C(Nc1ccc(Oc2ccccc2)cc1)c1ccncc1 | 10 | 33.4 | 
3 | O=C(Nc1ccc(Oc2ccccc2)cc1)c1cccnc1 | 10.6 | 40.9 | 26.3
4 | O=C(Nc1ccc(Oc2ccccc2)cc1)c1ccccn1 | 10.8 | 52.4 | 40.7
5 | C=CCOC(=O)Nc1ccc(Oc2ccc(NC(=O)c3ccccn3)cc2)cc1 | 11.1 | 40.7 | 27.2
6 | C=CCOC(=O)Nc1ccc(Oc2ccc(NC(=O)c3ccncc3)cc2)cc1 | 11.7 | 53.8 | 42.5
7 | C=CCOC(=O)Nc1ccc(Oc2ccc(NC(=O)c3cnccn3)cc2)cc1 | 9.5 | 25.3 | 
8 | CC(=O)Nc1ccc(Oc2ccc(NC(=O)c3cccnc3)cc2)cc1 | 10.6 | 57.6 | 
9 | CC(=O)Nc1ccc(Oc2ccc(NC(=O)c3ccccn3)cc2)cc1 | 10.9 | 67.3 | 47.1
10 | C=CCOC(=O)Nc1ccc(Oc2ccc(NC(=O)c3cccnc3)cc2)cc1 | 10.2 | 34.4 | 
11 | O=C(Nc1ccc(Oc2ccccc2)cc1)c1cnccn1 | 9.7 | 29.2 | 
12 | CCOC(=O)NCCOc1ccc(Oc2ccccc2)cc1 [PHENOXYCARB] |  | 99.3 | 99.1
13 | CC(=O)Nc1ccc(Oc2ccc(NC(=O)c3cnccn3)cc2)cc1 | 11 | 68.4 | 49.1
14 | C=CCOC(=O)Nc1ccc(Oc2ccc(N)cc2)cc1 | 11.3 | 48.1 | 35
